According to patent US11498899B2, “Nitrone herbicides” (FMC Corporation, priority 2016, dated 2022):

Experiments:
[1] = system: barnyardgrass (Echinochloa crus-galli); test: Test B flooded paddy test, visual rating 0-100; conditions: Flood, 250 g ai/ha, applied to paddy water, rated after 13 to 15 days
[2] = system: rice (Oryza sativa); test: Test B flooded paddy test, visual rating 0-100 (0 no effect, 100 complete control); conditions: Flood, 250 g ai/ha, applied to paddy water, rated after 13 to 15 days
[3] = system: barnyardgrass (Echinochloa crus-galli); test: Test A preemergence, visual injury rating 0-100 (0 no effect, 100 complete control); assay type: in vivo
[4] = system: pigweed (Amaranthus retroflexus); test: Test A postemergence, visual injury rating 0-100; assay type: in vivo; conditions: 0 to 100 scale
[5] = system: galium (catchweed bedstraw, Galium aparine); test: Test A postemergence, visual injury rating 0-100; assay type: in vivo; conditions: 0 to 100 scale
[6] = system: kochia (Kochia scoparia); test: Test A postemergence, visual injury rating 0-100; assay type: in vivo; conditions: 0 to 100 scale
[7] = system: ryegrass, Italian (Italian ryegrass, Lolium multiflorum); test: Test A postemergence, visual injury rating 0-100; assay type: in vivo; conditions: 0 to 100 scale
[8] = system: ragweed (common ragweed, Ambrosia elatior); test: Test A postemergence, visual injury rating 0-100; assay type: in vivo; conditions: 0 to 100 scale
[9] = system: foxtail, giant (giant foxtail, Setaria faberii); test: Test A postemergence, visual injury rating 0-100; assay type: in vivo; conditions: 0 to 100 scale
[10] = system: barnyardgrass (Echinochloa crus-galli); test: Test A postemergence, visual injury rating 0-100; assay type: in vivo; conditions: 0 to 100 scale
[11] = system: corn (Zea mays); test: Test A postemergence, visual injury rating 0-100; assay type: in vivo; conditions: 0 to 100 scale
[12] = system: blackgrass (Alopecurus myosuroides); test: Test A postemergence, visual injury rating 0-100; assay type: in vivo; conditions: 0 to 100 scale
[13] = system: wheat (Triticum aestivum); test: Test A postemergence, visual injury rating 0-100; assay type: in vivo; conditions: 0 to 100 scale
[14] = system: pigweed (Amaranthus retroflexus); test: Test A preemergence, visual injury rating 0-100; assay type: in vivo
[15] = system: kochia (Kochia scoparia); test: Test A preemergence, visual injury rating 0-100; assay type: in vivo
[16] = system: ryegrass, Italian (Italian ryegrass, Lolium multiflorum); test: Test A preemergence, visual injury rating 0-100; assay type: in vivo
[17] = system: ragweed (common ragweed, Ambrosia elatior); test: Test A preemergence, visual injury rating 0-100; assay type: in vivo
[18] = system: foxtail, giant (giant foxtail, Setaria faberii); test: Test A preemergence, visual injury rating 0-100; assay type: in vivo
[19] = system: ducksalad (Heteranthera limosa); test: Test B flooded paddy test, visual rating 0-100; conditions: Flood, 250 g ai/ha, applied to paddy water, rated after 13 to 15 days
[20] = 31 g ai/ha, 0 to 100 scale (0 no effect, 100 complete control), approx. 10 days

Structure (SMILES) | Barnyardgrass plant response rating (0 to 100 scale) [1] | Rice plant response rating (0 to 100 scale) [2] | Barnyardgrass plant response rating (0 to 100 scale) ([3]; 125 g ai/ha) | Pigweed plant response rating ([4]; 125 g ai/ha) | Galium plant response rating ([5]; 125 g ai/ha) | Kochia plant response rating ([6]; 125 g ai/ha) | Ryegrass, Italian plant response rating ([7]; 125 g ai/ha) | Ragweed plant response rating ([8]; 125 g ai/ha) | Foxtail, Giant plant response rating ([9]; 125 g ai/ha) | Barnyardgrass plant response rating ([10]; 125 g ai/ha) | Corn plant response rating ([11]; 125 g ai/ha) | Blackgrass plant response rating ([12]; 125 g ai/ha) | Wheat plant response rating ([13]; 125 g ai/ha) | Pigweed plant response rating (0 to 100 scale) ([14]; 125 g ai/ha) | Kochia plant response rating (0 to 100 scale) ([15]; 125 g ai/ha) | Ryegrass, Italian plant response rating (0 to 100 scale) ([16]; 125 g ai/ha) | Ragweed plant response rating (0 to 100 scale) ([17]; 125 g ai/ha) | Foxtail, Giant plant response rating (0 to 100 scale) ([18]; 125 g ai/ha) | Ducksalad plant response rating (0 to 100 scale) [19] | Barnyardgrass plant response rating (0 to 100 scale) ([3]; 500 g ai/ha) | also measured
CC1=[N+]([O-])[C@@H](C(=O)Nc2cccc(F)c2F)[C@H](c2cccc(Oc3ncc(F)cc3F)c2)C1 [Compound 70] | 0 | 0 | 80 | 20 | 30 | 0 | 0 | 0 | 0 | 70 | 0 | 30 | 0 | 0 | 0 | 0 | 0 | 90 | 0 | – | Barnyardgrass plant response rating [3, 20]: 40; Pigweed plant response rating ([4]; 31 g ai/ha): 0; Galium plant response rating ([5]; 31 g ai/ha): 0; Kochia plant response rating ([6]; 31 g ai/ha): 0; Ryegrass, Italian plant response rating ([7]; 31 g ai/ha): 0; Ragweed plant response rating ([8]; 31 g ai/ha): 0; Foxtail, Giant plant response rating ([9]; 31 g ai/ha): 0; Barnyardgrass plant response rating ([10]; 31 g ai/ha): 20; Corn plant response rating ([11]; 31 g ai/ha): 0; Blackgrass plant response rating ([12]; 31 g ai/ha): 0; Wheat plant response rating ([13]; 31 g ai/ha): 0; Pigweed plant response rating [14, 20]: 0; Kochia plant response rating [15, 20]: 0; Ryegrass, Italian plant response rating [16, 20]: 0; Ragweed plant response rating [17, 20]: 0; Foxtail, Giant plant response rating [18, 20]: 20
CC1=[N+]([O-])[C@@H](C(=O)Nc2cccc(F)c2F)[C@H](c2cccc(Oc3ccc(F)cn3)c2)C1 [Compound 84] | 0 | 0 | 10 | 10 | 40 | 0 | 20 | 0 | 50 | 40 | 0 | 90 | 0 | 0 | 0 | 0 | 0 | 30 | 0 | 90 | Pigweed plant response rating ([4]; 500 g ai/ha): 40; Galium plant response rating ([5]; 500 g ai/ha): 40; Kochia plant response rating ([6]; 500 g ai/ha): 20; Ryegrass, Italian plant response rating ([7]; 500 g ai/ha): 90; Ragweed plant response rating ([8]; 500 g ai/ha): 30; Foxtail, Giant plant response rating ([9]; 500 g ai/ha): 70; Barnyardgrass plant response rating ([10]; 500 g ai/ha): 90; Corn plant response rating ([11]; 500 g ai/ha): 40; Blackgrass plant response rating ([12]; 500 g ai/ha): 90; Wheat plant response rating ([13]; 500 g ai/ha): 50; Pigweed plant response rating (0 to 100 scale) ([14]; 500 g ai/ha): 30; Kochia plant response rating (0 to 100 scale) ([15]; 500 g ai/ha): 50; Ryegrass, Italian plant response rating (0 to 100 scale) ([16]; 500 g ai/ha): 80; Ragweed plant response rating (0 to 100 scale) ([17]; 500 g ai/ha): 20; Foxtail, Giant plant response rating (0 to 100 scale) ([18]; 500 g ai/ha): 90
CC1=[N+]([O-])C(C(=O)Nc2cccc(F)c2F)C(c2cccc(Cl)n2)C1 (stereo not drawn) [Compound 89] | 0 | 0 | 0 | 0 | 0 | 0 | 0 | 0 | 0 | 20 | 0 | 0 | 0 | 0 | 0 | 0 | 0 | 0 | 30 | 40 | Pigweed plant response rating ([4]; 500 g ai/ha): 0; Galium plant response rating ([5]; 500 g ai/ha): 0; Kochia plant response rating ([6]; 500 g ai/ha): 0; Ryegrass, Italian plant response rating ([7]; 500 g ai/ha): 0; Ragweed plant response rating ([8]; 500 g ai/ha): 0; Foxtail, Giant plant response rating ([9]; 500 g ai/ha): 0; Barnyardgrass plant response rating ([10]; 500 g ai/ha): 30; Corn plant response rating ([11]; 500 g ai/ha): 0; Blackgrass plant response rating ([12]; 500 g ai/ha): 0; Wheat plant response rating ([13]; 500 g ai/ha): 0; Pigweed plant response rating (0 to 100 scale) ([14]; 500 g ai/ha): 0; Kochia plant response rating (0 to 100 scale) ([15]; 500 g ai/ha): 0; Ryegrass, Italian plant response rating (0 to 100 scale) ([16]; 500 g ai/ha): 0; Ragweed plant response rating (0 to 100 scale) ([17]; 500 g ai/ha): 0; Foxtail, Giant plant response rating (0 to 100 scale) ([18]; 500 g ai/ha): 30
